Here are results for 15 molecules from US8754101B2, “N-cyclobutyl-imidazopyridine-methylamine as TRPV1 antagonists” (Glaxo Group Limited, priority 2011, dated 2014).

Where a name gives a salt, the structure may show the parent alone.

In the first data set the target is T1, TRPV1 receptor (Homo sapiens, UniProt Q8NER1).
T1 construct: expressed in transfected cells; host or cells: HEK-293 cells stably expressing mitochondrial targeted Aequorin, transduced with TRPV1 BacMam
T1 sequence (Q8NER1 whole entry): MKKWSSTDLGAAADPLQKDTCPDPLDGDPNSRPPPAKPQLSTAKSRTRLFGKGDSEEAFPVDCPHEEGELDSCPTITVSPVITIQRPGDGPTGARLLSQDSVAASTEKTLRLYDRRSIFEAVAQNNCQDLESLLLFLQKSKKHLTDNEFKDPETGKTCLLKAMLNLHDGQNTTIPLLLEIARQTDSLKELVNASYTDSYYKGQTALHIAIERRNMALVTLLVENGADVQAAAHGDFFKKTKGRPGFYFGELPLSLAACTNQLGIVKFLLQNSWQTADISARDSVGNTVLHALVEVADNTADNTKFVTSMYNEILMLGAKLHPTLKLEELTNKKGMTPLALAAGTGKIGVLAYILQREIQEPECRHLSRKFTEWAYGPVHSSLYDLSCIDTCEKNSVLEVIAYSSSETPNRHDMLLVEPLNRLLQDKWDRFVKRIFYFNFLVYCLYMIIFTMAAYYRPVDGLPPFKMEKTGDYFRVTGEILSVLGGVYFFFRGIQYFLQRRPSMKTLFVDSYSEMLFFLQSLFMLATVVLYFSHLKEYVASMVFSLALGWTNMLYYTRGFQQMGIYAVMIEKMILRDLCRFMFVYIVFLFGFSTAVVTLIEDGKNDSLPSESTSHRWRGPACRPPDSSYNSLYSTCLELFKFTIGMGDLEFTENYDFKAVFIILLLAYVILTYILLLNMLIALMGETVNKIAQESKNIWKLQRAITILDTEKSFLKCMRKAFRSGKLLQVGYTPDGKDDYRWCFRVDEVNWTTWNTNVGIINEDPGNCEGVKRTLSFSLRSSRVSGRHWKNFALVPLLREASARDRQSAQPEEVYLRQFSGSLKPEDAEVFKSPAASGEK
Description: Capsaicin assay for TRPV1 receptor antagonism (aequorin luminescence, HEK-293 cells expressing TRPV1). The data set is classed as cell-based. The conditions noted are these: HEK-293 cells expressing TRPV1, pH 7.4, challenge with 4×EC50 capsaicin, 15 min preincubation; read-out: pIC50 in the Capsaicin assay (converted). How it is done:
Assays for the functional inhibition of TRPV1 Ion Channel by test compound using Capsaicin or Acid Stimulus challenge were performed.
Compounds were dissolved in DMSO to 1 mM. An 11 point 4 fold serial dilution was prepared and 0.5 ul dispensed into Greiner black clear bottom 384 well plates.
HEK-293 cells stably expressing mitochondrial targeted Aequorin were transfected with TRPV1 receptor bacmam at scale for cryopreservation in 1 ml vial aliquots. Cells can be stored at −140° C. for up to 18 months.
18-20 hours before assay, cells were rapidly thawed in a water bath at 37° C. and transferred to a 50 ml Falcon tube. Cells were resuspended in 9 mls of M1 ‘generic’ media (DMEM/F12 with 10% dialysed FBS-Invitrogen 041-95750V) for every 1 ml cells and then centrifuged for 5 min at 1000 rpm. The cell pellet was resuspended in ˜10 mls loading buffer (Tyrodes Base Buffer*+0.1% Pluronic Acid F68 solution+0.1% BSA) and the pH was adjusted to 7.4 for Capsaicin stimulus assay or 6.7 for Acid stimulus assay. Cell density was calculated using the Trypan Blue stain method and adjusted to 2.5×10 e6 cells/ml using loading buffer. Coelentrazine (DiscoverX Cat. No 0-0084L-500 uM stock made in 100% ethanol) was added to a final concentration of 5 uM and the falcon tube was covered in foil (to protect from light) and placed on a windmill rotator at room temperature for approximately 20 hours. *Base Buffer=Sigma kit T2145 was dissolved in deionised water, 20 mL HEPES solution (Sigma H0887) and 13.4 mL of NaHCO3 (Sigma S8761) and made up to 1 L.
After loading, a cell count was taken and cell density adjusted accordingly depending on assay stimulus.
For Capsaicin stimulus assay cells were diluted to 1.25×10 e5 cells/ml using dilution buffer (Tyrodes Base Buffer+0.1% Pluronic Acid F68 solution) at pH 7.4
To the compound plates, the following additions were made:
20 ul dilution buffer at pH 7.4 followed by 20 ul cells were added to the test compound plate and any agonist activity measured as luminescence AUC counts. The compound/cell mix was incubated for 15 minutes and then challenged with 20 ul of a 4×EC50 concentration of Capsaicin (calculated on the day of assay), with concomitant luminescence detection.
AUC data was exported from the reader and data analysis was performed using 4 parameter logistic model, with data normalised to nominal high and low controls within plate.
For `FC(F)(F)c1cccc(O[C@H]2C[C@H](NCc3cccn4ccnc34)C2)c1` [Example 1, trans-N-(Imidazo[1,2-a]pyridin-8-ylmethyl)-3-{[3-(trifluoromethyl)phenyl]oxy}cyclobutanamine], the IC50 is 1.26 to 100 nM.

For the molecule `Clc1cccc(O[C@H]2C[C@H](NCc3cccn4ccnc34)C2)c1Cl` [Example 2, trans-3-[(2,3-Dichlorophenl)oxy]-N-(imidazo[1,2-a]pyridin-8-ylmethyl)cyclobutanamine], the IC50 is 1.26 to 100 nM.

Regarding `FC(F)(F)c1cccc(O[C@H]2C[C@H](NCc3cccn4ccnc34)C2)c1Cl` [Example 4, trans-3-{[2-Chloro-3-(trifluoromethyl)phenyl]oxy}-N-(imidazo[1,2-a]pyridin-8-ylmethyl)cyclobutanamine], the IC50 is 1.26 to 100 nM.

In the case of `Fc1ccc(O[C@H]2C[C@H](NCc3cccn4ccnc34)C2)cc1Cl` [Example 5, trans-3-[(3-Chloro-4-fluorophenyl)oxy]-N-(imidazo[1,2-a]pyridin-8-ylmethyl)cyclobutanamine, trifluoroacetate], the IC50 was 1.26 to 100 nM.

For the molecule `FC(F)(F)c1cc(O[C@H]2C[C@H](NCc3cccn4ccnc34)C2)ccc1Cl` [Example 6, trans-3-{[4-Chloro-3-(trifluoromethyl)phenyl]oxy}-N-(imidazo[1,2-a]pyridin-8-ylmethyl)cyclobutanamine], the IC50 is 1.26 to 100 nM.

Take `Fc1ccc(O[C@H]2C[C@H](NCc3cccn4ccnc34)C2)cc1C(F)(F)F` [Example 7, trans-3-{[4-Fluoro-3-(trifluoromethyl)phenyl]oxy}-N-(imidazo[1,2-a]pyridin-8-ylmethyl)cyclobutanamine]: the IC50 was 1.26 to 100 nM.

On to `FC(F)(F)c1ccc(O[C@H]2C[C@H](NCc3cccn4ccnc34)C2)c(Cl)c1` [Example 8, trans-3-{[2-Chloro-4-(trifluoromethyl)phenyl]oxy}-N-(imidazo[1,2-a]pyridin-8-ylmethyl)cyclobutanamine], for which the IC50 is 1.26 to 100 nM.

In the case of `FC(F)(F)c1cc(Cl)ccc1O[C@H]1C[C@H](NCc2cccn3ccnc23)C1` [Example 9, trans-3-{[4-Chloro-2-(trifluoromethyl)phenyl]oxy}-N-(imidazo[1,2-a]pyridin-8-ylmethyl)cyclobutanamine], the IC50 is 1.26 to 100 nM.

On to `CC(C)(C)c1c(F)cc(O[C@H]2C[C@H](NCc3cccn4ccnc34)C2)cc1F` [Example 11, trans-3-{[4-(1,1-Dimethylethyl)-3,5-difluorophenyl]oxy}-N-(imidazo[1,2-a]pyridin-8-ylmethyl)cyclobutanamine], for which the IC50 was 1.26 to 100 nM.

With `CC(C)(C)c1c(F)cc(O[C@H]2C[C@@H](NCc3cccn4ccnc34)C2)cc1F` [Example 12, cis-3-{[4-(1,1-Dimethylethyl)-3,5-difluorophenyl]oxy}-N-(imidazo[1,2-a]pyridin-8-ylmethyl)cyclobutanamine], the IC50 was 1.26 to 100 nM.

Regarding `OCc1ccc(CN[C@H]2C[C@H](Oc3cccc(Cl)c3Cl)C2)c2nccn12` [Example 13, {8-[({trans-3-[(2,3-Dichlorophenyl)oxy]cyclobutyl}amino)methyl]imidazo[1,2-a]pyridin-5-yl}methanol], the IC50 is 1.26 to 100 nM.

With `OCc1ccc(CN[C@H]2C[C@H](Oc3ccc(F)c(C(F)(F)F)c3)C2)c2nccn12` [Example 14, (8-{[(trans-3-{[4-Fluoro-3-(trifluoromethyl)phenyl]oxy}cyclobutyl)amino]methyl}imidazo[1,2-a]pyridin-5-yl)methanol], the IC50 is 1.26 to 100 nM.

Take `OCc1cnc2c(CN[C@H]3C[C@H](Oc4cccc(Cl)c4Cl)C3)cccn12` [Example 15, {8-[({trans-3-[(2,3-Dichlorophenyl)oxy]cyclobutyl}amino)methyl]imidazo[1,2-a]pyridin-3-yl}methanol]: the IC50 was 1.26 to 100 nM.

Another data set concerns i.v. Capsaicin Induced Bronchoconstriction. Briefly: Inhibition of i.v. capsaicin induced bronchoconstriction in anesthetized guinea pigs. Type of data set: in vivo. The conditions noted are these: Cavia porcellus, intra-tracheal dosing 1 hour before capsaicin 20 ug/kg i.v., estimated from dose response 0.005-5 mg/kg. How it is done: Male Hartley Guinea Pigs weighing between 400 and 700 g were anesthetized with ketamine/xylazine mixture (88/15 mg/kg, i.m.). Animals were placed on their back, a toe pinch was performed to ensure depth of anaesthesia and a section of skin and fur was dissected away from the neck. The trachea, jugular vein, and carotid artery were isolated and cannulated to allow for ventilation, drug delivery, and blood pressure monitoring. Compounds were delivered via intra-tracheal delivery (in 200 uL of 0.5% Tween 80) 1 hour before capsaicin challenge. Depth of anaesthesia was confirmed by toe pinch and the Guinea pigs were placed in the full body plethysmograph. The chamber was closed and the animal was paralyzed by administration of Gallamine (2 mg/kg i.v.). Animals were ventilated at ˜1.0 mL/110 g, 60-65 breaths per minute by a Harvard Apparatus rodent respirator. Blood pressure and heart rate were continuously monitored to assess the level of anaesthesia, with supplemental anaesthetic doses given as required to maintain the proper level of anaesthesia. […] The BioWindow Cardio Pulmonary Software version 1.02 (Modular Instruments, Inc.) recorded arterial pressure, pulmonary pressure and airflow. Air pressure delta (difference between maximum and minimum air pressure) was used as the primary readout of inhibition of the capsaicin induced bronchoconstriction. […]
The ED50 is the dose at which the effect has come halfway, by size or by number of responders. As for `Cl.Fc1ccc(O[C@H]2C[C@H](NCc3cccn4ccnc34)C2)cc1C(F)(F)F` [Example 7A, trans-3-{[4-Fluoro-3-(trifluoromethyl)phenyl]oxy}-N-(imidazo[1,2-a]pyridin-8-ylmethyl)cyclobutanamine, hydrochloride salt], the median effective dose (ED50) was 0.033 mg/kg.

The same data set, now with this note: dose 30 ug/kg intra-tracheal, 1 hour before capsaicin 20 ug/kg i.v., n=3.
On to `OCc1ccc(CN[C@H]2C[C@H](Oc3cccc(Cl)c3Cl)C2)c2nccn12` [Example 13, {8-[({trans-3-[(2,3-Dichlorophenyl)oxy]cyclobutyl}amino)methyl]imidazo[1,2-a]pyridin-5-yl}methanol], for which the “inhibition of capsaicin induced bronchoconstriction” value was 61% (+/−16.6%).

System in the next data set: not listed separately
Description: Solubility in simulated lung fluid. The data set is classed as physicochemical. The conditions noted are these: Phosphate buffer, pH 6.9, 0.75 mM lecithin, 0.1% BSA, 37° C. over 4 hours.
Usually solubility stands for the concentration that dissolves in the medium under given conditions. On to `Fc1ccc(O[C@H]2C[C@H](NCc3cccn4ccnc34)C2)cc1C(F)(F)F.O=C(O)/C=C\C(=O)O` [Example 7B, trans-3-{[4-Fluoro-3-(trifluoromethyl)phenyl]oxy}-N-(imidazo[1,2-a]pyridin-8-ylmethyl)cyclobutanamine, maleate salt], for which the solubility at 4 h is 1780 µg/mL.
